Laboratory results: ChEMBL document CHEMBL4177618, “Design and synthesis of a novel series of (1'S,2R,4'S)-3H-4'-azaspiro[benzo[4,5]imidazo[2,1-b]oxazole-2,2'-bicyclo[2.2.2]octanes] with high affinity for the α7 neuronal nicotinic receptor” (Bioorg Med Chem Lett, 2017)

How the values were obtained:
[1] = target: T1, Neuronal acetylcholine receptor subunit alpha-7 (Rattus norvegicus, UniProt Q05941); experiment: Agonist activity at rat alpha7 nAChR expressed in HEK293 cells co-expressing human RIC-3 assessed as increase in calcium flux measured for 2 mins by Fluo-4 AM dye based FLIPR assay; format: cell-based
[2] = target: T2, 5-hydroxytryptamine receptor 3A (Homo sapiens, UniProt P46098); experiment: Antagonist activity at human 5-HT3A receptor expressed in HEK293 cells assessed as inhibition of 5-HT-induced calcium flux preincubated for 30 mins prior to 5-HT addition by Fluo-4 AM dye based FLIPR assay; format: cell-based
T2 sequence (P46098 whole entry): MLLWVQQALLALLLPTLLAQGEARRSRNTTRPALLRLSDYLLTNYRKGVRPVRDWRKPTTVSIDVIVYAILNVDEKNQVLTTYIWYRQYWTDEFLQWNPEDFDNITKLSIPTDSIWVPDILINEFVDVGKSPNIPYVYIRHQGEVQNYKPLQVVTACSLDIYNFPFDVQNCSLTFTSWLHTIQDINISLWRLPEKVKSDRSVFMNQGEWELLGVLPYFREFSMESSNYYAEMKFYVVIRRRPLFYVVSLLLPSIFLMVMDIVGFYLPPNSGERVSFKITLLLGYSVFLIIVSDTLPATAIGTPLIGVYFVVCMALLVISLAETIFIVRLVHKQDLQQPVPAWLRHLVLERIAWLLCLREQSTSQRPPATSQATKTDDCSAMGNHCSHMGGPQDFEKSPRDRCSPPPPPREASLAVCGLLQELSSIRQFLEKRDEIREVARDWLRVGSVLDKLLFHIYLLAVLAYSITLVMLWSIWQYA

[3] = Selectivity ratio of IC50 for human 5-HT3A receptor expressed in HEK293 cells to EC50 for rat alpha7 nAChR expressed in HEK293 cells; format: cell-based
[4] = target: Neuronal acetylcholine receptor subunit alpha-7 (Homo sapiens, UniProt P36544); experiment: Binding affinity to human alpha7 nAChR
[5] = target: T2, 5-hydroxytryptamine receptor 3A; experiment: Binding affinity to 5-HT3A receptor (unknown origin)
[6] = target: T1, Neuronal acetylcholine receptor subunit alpha-7; experiment: Displacement of [125I]alpha-bungarotoxin from rat alpha7 nAChR expressed in HEK293 cell membranes after 2 hrs by topcount scintillation counting analysis
[7] = Agonist activity at rat alpha1beta1deltaepsilon nAChR expressed in HEK293 cells assessed as increase in calcium flux measured for 2 mins by Fluo-4-AM dye based FLIPR assay; format: cell-based; conditions: HEK293, 2 min
[8] = target: Neuronal acetylcholine receptor; alpha3/beta4 (Rattus norvegicus, UniProt P04757+P12392); experiment: Agonist activity at rat alpha3beta4 nAChR expressed in HEK293 cells assessed as increase in calcium flux measured for 2 mins by Fluo-4-AM dye based FLIPR assay; format: cell-based
[9] = target: Neuronal acetylcholine receptor; alpha4/beta2 (Rattus norvegicus, UniProt P09483+P12390); experiment: Agonist activity at rat alpha4beta2 nAChR expressed in HEK293 cells assessed as increase in calcium flux measured for 2 mins by Fluo-4-AM dye based FLIPR assay; format: cell-based
Sequence of Neuronal acetylcholine receptor; alpha4/beta2 (P09483 whole entry): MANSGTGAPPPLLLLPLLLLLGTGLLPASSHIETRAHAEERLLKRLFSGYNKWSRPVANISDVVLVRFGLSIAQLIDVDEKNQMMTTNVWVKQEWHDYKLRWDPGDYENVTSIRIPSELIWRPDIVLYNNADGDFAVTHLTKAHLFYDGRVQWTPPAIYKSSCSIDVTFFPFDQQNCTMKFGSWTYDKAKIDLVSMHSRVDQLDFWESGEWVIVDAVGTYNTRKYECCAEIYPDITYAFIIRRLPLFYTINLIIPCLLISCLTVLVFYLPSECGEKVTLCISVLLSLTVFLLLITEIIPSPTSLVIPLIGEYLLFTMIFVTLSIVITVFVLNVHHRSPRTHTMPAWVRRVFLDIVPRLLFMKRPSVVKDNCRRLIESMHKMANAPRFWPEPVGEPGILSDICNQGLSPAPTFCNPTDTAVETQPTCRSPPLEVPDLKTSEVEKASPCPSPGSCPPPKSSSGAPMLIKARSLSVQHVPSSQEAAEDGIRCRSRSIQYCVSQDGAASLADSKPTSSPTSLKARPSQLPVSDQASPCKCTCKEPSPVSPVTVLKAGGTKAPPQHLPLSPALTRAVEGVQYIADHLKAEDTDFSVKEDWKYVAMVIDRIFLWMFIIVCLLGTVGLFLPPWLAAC
Sequence of Neuronal acetylcholine receptor; alpha4/beta2 (P12390 whole entry): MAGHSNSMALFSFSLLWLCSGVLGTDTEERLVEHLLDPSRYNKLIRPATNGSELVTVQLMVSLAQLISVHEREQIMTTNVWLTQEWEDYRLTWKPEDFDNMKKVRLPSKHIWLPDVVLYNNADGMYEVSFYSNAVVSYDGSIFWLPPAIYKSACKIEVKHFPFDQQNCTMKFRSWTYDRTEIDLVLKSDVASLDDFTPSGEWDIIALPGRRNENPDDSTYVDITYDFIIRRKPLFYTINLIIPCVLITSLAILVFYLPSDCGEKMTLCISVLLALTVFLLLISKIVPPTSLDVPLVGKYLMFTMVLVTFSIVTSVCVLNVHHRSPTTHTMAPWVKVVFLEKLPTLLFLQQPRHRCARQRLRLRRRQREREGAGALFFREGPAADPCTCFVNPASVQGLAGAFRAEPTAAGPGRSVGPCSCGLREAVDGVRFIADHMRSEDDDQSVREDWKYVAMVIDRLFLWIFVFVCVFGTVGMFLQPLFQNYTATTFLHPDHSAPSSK

T1 sequence (Q05941 whole entry): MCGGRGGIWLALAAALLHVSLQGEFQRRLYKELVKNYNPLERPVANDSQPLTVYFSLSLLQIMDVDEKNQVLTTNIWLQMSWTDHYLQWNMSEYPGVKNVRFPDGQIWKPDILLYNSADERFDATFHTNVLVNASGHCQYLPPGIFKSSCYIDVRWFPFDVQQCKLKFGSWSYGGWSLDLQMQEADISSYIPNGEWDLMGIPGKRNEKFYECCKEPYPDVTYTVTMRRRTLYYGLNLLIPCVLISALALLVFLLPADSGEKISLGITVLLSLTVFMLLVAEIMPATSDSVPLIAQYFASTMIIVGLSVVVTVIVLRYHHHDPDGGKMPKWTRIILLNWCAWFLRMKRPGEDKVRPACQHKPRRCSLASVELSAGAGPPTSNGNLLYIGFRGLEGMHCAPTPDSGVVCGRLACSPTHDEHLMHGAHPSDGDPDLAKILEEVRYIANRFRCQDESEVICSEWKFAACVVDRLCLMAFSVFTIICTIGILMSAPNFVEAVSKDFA
Sequence of Neuronal acetylcholine receptor; alpha3/beta4 (P04757 whole entry): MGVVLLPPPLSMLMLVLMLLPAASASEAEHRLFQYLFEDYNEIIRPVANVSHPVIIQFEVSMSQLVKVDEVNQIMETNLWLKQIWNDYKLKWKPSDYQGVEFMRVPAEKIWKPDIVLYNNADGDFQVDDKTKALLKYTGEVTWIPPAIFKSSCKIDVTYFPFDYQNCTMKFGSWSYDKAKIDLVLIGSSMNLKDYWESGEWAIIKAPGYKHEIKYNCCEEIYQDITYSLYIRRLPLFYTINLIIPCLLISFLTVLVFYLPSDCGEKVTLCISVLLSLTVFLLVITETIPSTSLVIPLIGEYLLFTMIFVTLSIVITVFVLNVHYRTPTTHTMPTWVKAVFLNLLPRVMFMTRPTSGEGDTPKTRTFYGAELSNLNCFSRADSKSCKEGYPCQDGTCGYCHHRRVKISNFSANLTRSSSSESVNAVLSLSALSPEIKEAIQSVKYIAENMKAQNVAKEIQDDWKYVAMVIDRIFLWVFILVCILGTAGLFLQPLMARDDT
Sequence of Neuronal acetylcholine receptor; alpha3/beta4 (P12392 whole entry): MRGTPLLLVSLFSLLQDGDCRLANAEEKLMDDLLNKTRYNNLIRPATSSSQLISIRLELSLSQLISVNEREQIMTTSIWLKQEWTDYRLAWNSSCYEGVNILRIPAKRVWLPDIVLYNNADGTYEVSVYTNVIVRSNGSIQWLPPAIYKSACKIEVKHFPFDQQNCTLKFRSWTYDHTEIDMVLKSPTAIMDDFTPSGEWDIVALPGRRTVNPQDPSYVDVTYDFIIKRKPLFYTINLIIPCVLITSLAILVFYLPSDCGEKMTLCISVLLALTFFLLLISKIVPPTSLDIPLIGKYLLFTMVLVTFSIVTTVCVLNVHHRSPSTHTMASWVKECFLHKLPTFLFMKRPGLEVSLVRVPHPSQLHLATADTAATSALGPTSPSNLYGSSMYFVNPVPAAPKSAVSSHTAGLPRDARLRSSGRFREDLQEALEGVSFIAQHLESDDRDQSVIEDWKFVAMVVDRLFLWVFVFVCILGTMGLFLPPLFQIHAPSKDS
Sequence of Neuronal acetylcholine receptor subunit alpha-7 (Homo sapiens, UniProt P36544) (P36544 whole entry): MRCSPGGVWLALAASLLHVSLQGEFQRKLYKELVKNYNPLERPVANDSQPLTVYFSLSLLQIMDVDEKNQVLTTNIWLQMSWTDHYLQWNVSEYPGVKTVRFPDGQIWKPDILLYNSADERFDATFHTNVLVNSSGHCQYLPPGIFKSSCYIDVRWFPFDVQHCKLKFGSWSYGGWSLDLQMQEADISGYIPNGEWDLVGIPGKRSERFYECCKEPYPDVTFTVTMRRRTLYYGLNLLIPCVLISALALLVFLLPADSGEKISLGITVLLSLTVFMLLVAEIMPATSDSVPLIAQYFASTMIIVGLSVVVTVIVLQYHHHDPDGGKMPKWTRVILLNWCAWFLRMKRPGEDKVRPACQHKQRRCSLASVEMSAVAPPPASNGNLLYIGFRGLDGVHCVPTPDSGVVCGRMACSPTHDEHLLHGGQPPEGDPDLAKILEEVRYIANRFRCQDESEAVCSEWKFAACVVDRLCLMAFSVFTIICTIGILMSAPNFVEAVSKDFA

Structure (SMILES)	EC50 [1]	IC50 [2]	Ratio IC50/EC50 [3]	other results
Clc1ccc2nc3n(c2c1)C[C@@]1(CN2CCC1CC2)O3	14 nM	9 nM	0.6	
FC(F)(F)c1cccc2c1nc1n2C[C@@]2(CN3CCC2CC3)O1	22 nM	11 nM	0.5	
Clc1ccc2c(c1)nc1n2C[C@@]2(CN3CCC2CC3)O1	31 nM	6 nM	0.2	
COc1ccc(-c2cccc3c2nc2n3C[C@@]3(CN4CCC3CC4)O2)cc1	26 nM	10400 nM	400	
FC(F)(F)c1ccc2c(c1)nc1n2C[C@@]2(CN3CCC2CC3)O1	13 nM	660 nM	51	
Cc1cccc2c1nc1n2C[C@@]2(CN3CCC2CC3)O1	7 nM	7 nM	1	
Brc1nc2n(c1Br)C[C@]1(CN3CCC1CC3)O2	4030 nM	9700 nM		
Brc1nc2n(c1Br)C[C@@]1(CN3CCC1CC3)O2	19 nM	43 nM		
Clc1cccc2c1nc1n2C[C@@]2(CN3CCC2CC3)O1	16 nM	4 nM	0.3	
Clc1cccc2nc3n(c12)C[C@@]1(CN2CCC1CC2)O3	268 nM	11 nM	0.04	
c1ccc(-c2cnc3c(c2)C[C@@]2(CN4CCC2CC4)O3)cc1				Ki [4]: 2 nM; Ki [5]: 2 nM
c1cnc2c(c1)C[C@@]1(CN3CCC1CC3)O2 [AZD0328]				Ki [6]: 5 nM
FC(F)(F)c1ccc2nc3n(c2c1)C[C@@]1(CN2CCC1CC2)O3	69 nM	17 nM	0.25	
Brc1nc2n(c1Br)CC1(CN3CCC1CC3)O2 (racemic)	32 nM	62 nM		
Cc1ccc2c(c1)nc1n2C[C@@]2(CN3CCC2CC3)O1	5 nM	13 nM	2.6	
c1ccc2c(c1)nc1n2C[C@]2(CN3CCC2CC3)O1	6400 nM	13000 nM	2	
c1ccc2c(c1)nc1n2C[C@@]2(CN3CCC2CC3)O1	11 nM	15 nM	1.4	EC50 [7]: > 100000 nM; EC50 [8]: > 100000 nM; EC50 [9]: > 100000 nM
Cc1ccc2nc3n(c2c1)C[C@@]1(CN2CCC1CC2)O3	33 nM	6 nM	0.2	
COc1ccc2c(c1)nc1n2C[C@@]2(CN3CCC2CC3)O1	7 nM	11 nM	1.6	
